The experiment addresses T1, HIV-1 protease wild type protein (Human immunodeficiency virus type 1 group M subtype B, UniProt P04585).
T1 construct: HIV-1 protease wild type protein; purchased AscoProt Biotech, Prague, Czech Republic
Briefly: Biochemical protease assay. How it is done: For the determination of their in vitro activity on HIV proteases the test substances are dissolved in DMSO and serially diluted. In each case 0.5 μl of substance dilution, 20 μl of 0.2-1 nM HIV-1 protease wild type or mutant protein (e.g., multiresistant isolate “35513”: L10I, I15V, L19I, K20R, E35D, M36I, R41K, I54V, L63P, H69K, A71V, T74P, I84V, L89M, L90M, 193L, AscoProt Biotech, Prague, Czech Republic) in buffer 1 (50 mM sodium acetate pH 4.9, 0.02% BSA, 0.1 mM EDTA, 0.5 mM DTT) and 20 μl of 8 μM substrate (M1865 from Bachem, Bubendorf, Switzerland; Matayoshi et al., Science 1990, 247, 954-8) in buffer 1 are added successively to a 384 well microtiter plate (Greiner, Frickenhausen, Germany), incubated for 60-180 minutes at 32° C. and the fluorescence is measured (e.g., Tecan Safire, 340 nm extinction, 520 nm emission). IC50 values are determined by graphical plotting the substance concentration against the percentage inhibition.
By IC50 is commonly meant the concentration that gives 50% inhibition. Higher therefore signals weaker potency in that assay. Regarding `Cc1cc(-c2cccc(S(C)(=O)=O)c2)c(Cl)cc1C1=C(O)C2(CCCN(C(=O)CCCS(N)(=O)=O)C2)OC1=O` (stereo not drawn) [Example 113], the IC50 is at most 0.1 µM.

Consider `Cc1cc(-c2cccc(S(C)(=O)=O)c2)c(Cl)cc1C1=C(O)C2(CCCN(S(=O)(=O)Cc3ccccc3)C2)OC1=O` (stereo not drawn) [Example 110], for which the IC50 was at most 0.1 µM.

`Cc1cc(-c2ccccc2)ccc1C1=C(O)C2(CCCCC2)OC1=O` [Example 59] had a half-inhibitory concentration (IC50) of at most 0.1 µM.

Take `Cc1cc(-c2cccc(S(C)(=O)=O)c2)c(Cl)cc1C1=C(O)C2(CCCN(CC(=O)C(C)(CF)CF)C2)OC1=O` (stereo not drawn) [Example 129]: the IC50 was at most 0.1 µM.

`CC(=O)Nc1cc(-c2cc(C)c(C3=C(O)C4(CCCCC4)OC3=O)cc2Cl)ccc1C` [Example 184, N-[2′-Chloro-4′-(4-hydroxy-2-oxo-1-oxaspiro[4.5]dec-3-en-3-yl)-4,5′-dimethylbiphenyl-3-yl]acetamide]: the IC50 is at most 0.1 µM.

Regarding `CCOC1CCCCC12OC(=O)C(c1cc(C)c(-c3ccc(Cl)cc3)cc1Cl)=C2O` (single isomer, unassigned) [Example 82], the half-maximal inhibitory concentration (IC50) is at most 0.1 µM.

On to `Cc1cc(-c2cccc(S(C)(=O)=O)c2)c(Cl)cc1C1=C(O)C2(CCCN(C(=O)N3CCOCC3)C2)OC1=O` (stereo not drawn) [Example 106], for which the IC50 is at most 0.1 µM.

`Cc1cc(-c2cccc(S(C)(=O)=O)c2)c(Cl)cc1C1=C(O)C2(CCCN(CC(=O)NCc3cccs3)C2)OC1=O` (stereo not drawn) [Example 170] showed an IC50 of at most 0.1 µM.

As for `CCOC(=O)N1CCC2(CC1)OC(=O)C(c1cc(Cl)c(-c3cccc(S(C)(=O)=O)c3)cc1C)=C2O` [Example 153], the IC50 is at most 0.1 µM.

In the case of `Cc1cc(-c2cccc(S(C)(=O)=O)c2)c(Cl)cc1C1=C(O)C2(CCN(C(=O)N3CCCC3)CC2)OC1=O` [Example 155], the 50% inhibitory concentration (IC50) is at most 0.1 µM.

Consider `C/C(=C\C(=O)N1CCCC2(C1)OC(=O)C(c1cc(Cl)c(-c3cccc(S(C)(=O)=O)c3)cc1C)=C2O)CO` (stereo not drawn) [Example 122], for which the IC50 was at most 0.1 µM.

Consider `Cc1cc(-c2cccc(NS(C)(=O)=O)c2)c(Cl)cc1C1=C(O)C2(CCCCC2)OC1=O` [Example 176, N-[2′-Chloro-4′-(4-hydroxy-2-oxo-1-oxaspiro[4.5]dec-3-en-3-yl)-5′-methylbiphenyl-3-yl]methanesulfonamide], for which the IC50 is at most 0.1 µM.

For the molecule `Cc1cc(-c2cccc(NC(=O)CCN)c2)c(Cl)cc1C1=C(O)[C@]2(CC[C@@H]3CCC[C@@H]3C2)OC1=O` [Example 183], the IC50 is at most 0.1 µM.

In turn, `Cc1cc(-c2ccc([N+](=O)[O-])cc2)c(Cl)cc1C1=C(O)C2(CCCCC2)OC1=O` [Example 47, 3-(2-chloro-5-methyl-4′-nitrobiphenyl-4-yl)-4-hydroxy-1-oxaspiro[4.5]dec-3-en-2-one] gave a concentration for half-maximal inhibition (IC50) of at most 0.1 µM.

As to `Cc1cc(-c2cccc(S(C)(=O)=O)c2)c(Cl)cc1C1=C(O)C2(CCCN(CC(=O)NCc3ccc(Cl)s3)C2)OC1=O` (stereo not drawn) [Example 203], the IC50 is at most 0.1 µM.

With `Cc1cc(-c2ccc(C(=O)NCC(=O)O)cc2)c(Cl)cc1C1=C(O)C2(CCCCC2)OC1=O` [Example 52], the 50% inhibitory concentration (IC50) was at most 0.1 µM.

In turn, `Cc1cc(-c2cccc(S(C)(=O)=O)c2)c(Cl)cc1C1=C(O)C2(CCCN(CC(=O)NCc3ccco3)C2)OC1=O` (stereo not drawn) [Example 169] registered a concentration for half-maximal inhibition (IC50) of at most 0.1 µM.

`Cc1cc(-c2ccc(Cl)cc2)c(C)cc1C1=C(O)C2(CCC(=O)CC2)OC1=O` [Example 11] had an IC50 of at most 0.1 µM.

As to `Cc1cc(-c2cccc(S(C)(=O)=O)c2)c(Cl)cc1C1=C(O)C2(CCCN(CC(=O)NCc3cccnc3)C2)OC1=O` (stereo not drawn) [Example 162], the IC50 is at most 0.1 µM.

Molecule `Cc1cc(-c2cccc(S(C)(=O)=O)c2)c(Cl)cc1C1=C(O)C2(CCCN(C(=O)CCOc3ccccc3)C2)OC1=O` (stereo not drawn) [Example 100] returned an IC50 of at most 0.1 µM.

In turn, `COc1cccc(-c2cc(C)c(C3=C(O)C4(CCCCC4)OC3=O)cc2Cl)c1` [Example 32] gave an IC50 of at most 0.1 µM.

In turn, `Cc1cc(-c2cccc([N+](=O)[O-])c2)c(Cl)cc1C1=C(O)C2(CCC3CCCC3C2)OC1=O` (stereo not drawn) [Example 88] returned an IC50 of at most 0.1 µM.

As to `Cc1cc(-c2cccc(S(C)(=O)=O)c2)c(Cl)cc1C1=C(O)C2(CCCN(C(=O)/C=C\c3cnn(C)c3)C2)OC1=O` (stereo not drawn) [Example 121], the 50% inhibitory concentration (IC50) was at most 0.1 µM.

For the molecule `Cc1cc(-c2ccc(Cl)cc2)c(C)cc1C1=C(O)C2(CCCCC2OC(C)C)OC1=O` (stereo not drawn) [Example 13], the 50% inhibitory concentration (IC50) was at most 0.1 µM.

Molecule `C=CS(=O)(=O)Nc1cccc(-c2cc(C)c(C3=C(O)C4(CCCCC4)OC3=O)cc2Cl)c1` [Example 193, N-[2′-Chloro-4′-(4-hydroxy-2-oxo-1-oxaspiro[4.5]dec-3-en-3-yl)-5′-methylbiphenyl-3-yl]ethenesulfonamide] showed an IC50 of at most 0.1 µM.

`Cc1cc(-c2ccc3c(c2)OCO3)c(Cl)cc1C1=C(O)C2(CCCCC2)OC1=O` [Example 24] returned an IC50 of at most 0.1 µM.

The molecule `Cc1cc(-c2cccc(C)c2C)c(Cl)cc1C1=C(O)C2(CCCCC2)OC1=O` [Example 33] came in with an IC50 of at most 0.1 µM.

As for `Cc1cc(-c2cccc(S(C)(=O)=O)c2)c(Cl)cc1C1=C(O)C2(CCN(C(=O)CCCc3ccccc3)CC2)OC1=O` [Example 145], the 50% inhibitory concentration (IC50) is at most 0.1 µM.

Turning to `Cc1cc(-c2cccc(C(N)=O)c2)c(Cl)cc1C1=C(O)C2(CCCCC2)OC1=O` [Example 41], the 50% inhibitory concentration (IC50) is at most 0.1 µM.

`COC1CCCCC12OC(=O)C(c1cc(C)c(-c3ccc(Cl)cc3)cc1C)=C2O` (stereo not drawn) [Example 15] registered an IC50 of at most 0.1 µM.

With `Cc1cc(-c2cccc(NS(C)(=O)=O)c2)c(Cl)cc1C1=C(O)C2(CCC3CCCC3C2)OC1=O` (stereo not drawn) [Example 189], the half-inhibitory concentration (IC50) is at most 0.1 µM.

Consider `Cc1cc(-c2cccc(NS(C)(=O)=O)c2)c(Cl)cc1C1=C(O)C2(CCCN(CC(=O)NCc3ccccc3)C2)OC1=O` (stereo not drawn) [Example 97], for which the IC50 was at most 0.1 µM.

Molecule `CCOC1CCCCC12OC(=O)C(c1cc(Cl)c(-c3ccccc3)cc1C)=C2O` (single isomer, unassigned) [Example 77] returned a half-inhibitory concentration (IC50) of at most 0.1 µM.

In the case of `COc1cccc(-c2ccc(C3=C(O)C4(CCCCC4)OC3=O)c(C)c2)c1` [Example 60], the IC50 is at most 0.1 µM.

In the case of `COC(=O)CCCC(=O)N1CCC2(CC1)OC(=O)C(c1cc(Cl)c(-c3cccc(S(C)(=O)=O)c3)cc1C)=C2O` [Example 138, methyl 5-{3-[2-chloro-5-methyl-3′-(methylsulfonyl)biphenyl-4-yl]-4-hydroxy-2-oxo-1-oxa-8-azaspiro[4.5]dec-3-en-8-yl}-5-oxopentanoate], the half-inhibitory concentration (IC50) was at most 0.1 µM.

With `Cc1cc(-c2cccc(N)c2)c(Cl)cc1C1=C(O)[C@]2(CC[C@@H]3CCC[C@@H]3C2)OC1=O` [Example 175], the half-inhibitory concentration (IC50) was at most 0.1 µM.

Molecule `CCS(=O)(=O)Nc1cccc(-c2cc(C)c(C3=C(O)C4(CCCCC4)OC3=O)cc2Cl)c1` [Example 190] came in with a 50% inhibitory concentration (IC50) of at most 0.1 µM.

Regarding `Cc1cc(-c2ccc(C(=O)NC3CC3)cc2)c(Cl)cc1C1=C(O)C2(CCCCC2)OC1=O` [Example 49], the IC50 was at most 0.1 µM.

`COC1CCC2(CC1)OC(=O)C(c1cc(C)c(-c3cccc(C#N)c3)cc1C)=C2O` (stereo not drawn) [Example 56] displayed an IC50 of at most 0.1 µM.

`Cc1ccccc1CNC(=O)CN1CCCC2(C1)OC(=O)C(c1cc(Cl)c(-c3cccc(S(C)(=O)=O)c3)cc1C)=C2O` (stereo not drawn) [Example 132] displayed a 50% inhibitory concentration (IC50) of at most 0.1 µM.

`Cc1cc(-c2ccc(NC(=O)C(C)(C)C)cc2)c(Cl)cc1C1=C(O)C2(CCCCC2)OC1=O` [Example 44] displayed an IC50 of at most 0.1 µM.

For the molecule `COc1ccc(-c2cc(C)c(C3=C(O)C4(CCCCC4)OC3=O)cc2Cl)cc1` [Example 23], the IC50 is at most 0.1 µM.

Source of the values: US20100022527A1, “BIPHENYL SUBSTITUTED SPIROTETRONIC ACIDS AND THEIR USE FOR THE TREATMENT OF RETROVIRAL DISEASES” (priority 2006, published 2010).
